3 compounds from ChEMBL document CHEMBL4622870, “Design, synthesis and evaluation of hydrazine and acyl hydrazone derivatives of 5-pyrrolidin-2-one as antifungal agents” (Bioorg Med Chem Lett, 2020) can be followed below.

For data set [1], the system named is Fusarium solani. In words: Antifungal activity against Fusarium solani assessed as fungal growth inhibition by micro-dilution method. It is filed as functional.
Data set [2] relates to Sclerotinia sclerotiorum. In words: Antifungal activity against Sclerotinia sclerotiorum assessed as fungal growth inhibition at 100 ug/ml by micro-dilution method relative to control. It is filed as functional. Particulars: read-out: GI.
The subject of data set [3] is Pichia kudriavzevii. Description: Antifungal activity against Candida krusei assessed as fungal growth inhibition at 100 ug/ml by micro-dilution method relative to control. In kind it is functional. Particulars: read-out: GI.
For data set [4], the system named is Alternaria alternata. Description: Antifungal activity against Alternaria alternata assessed as fungal growth inhibition at 100 ug/ml by micro-dilution method relative to control. It is filed as functional. Particulars: read-out: GI.
For data set [5], the system named is Candida tropicalis. In words: Antifungal activity against Candida tropicalis assessed as fungal growth inhibition at 100 ug/ml by micro-dilution method relative to control. The settings on record: read-out: GI. It is filed as functional.
Data set [6] concerns Geotrichum candidum. Description: Antifungal activity against Geotrichum candidum assessed as fungal growth inhibition at 50 ug/ml by micro-dilution method relative to control. In kind it is functional. The settings on record: read-out: GI.
Data set [7] deals with Aspergillus oryzae. In words: Antifungal activity against Aspergillus oryzae assessed as fungal growth inhibition at 100 ug/ml by micro-dilution method relative to control. It is filed as functional. The settings on record: read-out: GI.
In data set [8] the test system is Botrytis cinerea. Description: Antifungal activity against Botrytis cinerea assessed as fungal growth inhibition at 100 ug/ml by micro-dilution method relative to control. It is filed as functional. The settings on record: read-out: GI.
Data set [9] relates to Geotrichum candidum. Description: Antifungal activity against Geotrichum candidum assessed as fungal growth inhibition by micro-dilution method. In kind it is functional.
The subject of data set [10] is HEK293. In words: Cytotoxicity against human HEK293 cells assessed as effect on cell viability measured after 72 hrs by MTS assay. It is filed as cell-based. The settings on record: hek293, 72 h.
In data set [11] the test system is Cladosporium cladosporioides. In words: Antifungal activity against Cladosporium cladosporioides assessed as fungal growth inhibition at 100 ug/ml by micro-dilution method relative to control. It is filed as functional. Particulars: read-out: GI.
For data set [12], the system named is Paecilomyces variotii. Description: Antifungal activity against Paecilomyces variotii assessed as fungal growth inhibition at 100 ug/ml by micro-dilution method relative to control. It is filed as functional. Particulars: read-out: GI.
Data set [13] has as its system Geotrichum candidum. Description: Antifungal activity against Geotrichum candidum assessed as fungal growth inhibition at 100 ug/ml by micro-dilution method relative to control. It is filed as functional. The settings on record: read-out: GI.
The subject of data set [14] is Kluyveromyces marxianus. In words: Antifungal activity against Candida pseudotropicalis assessed as fungal growth inhibition at 100 ug/ml by micro-dilution method relative to control. In kind it is functional. The settings on record: read-out: GI.
In data set [15] the test system is Penicillium ochrochloron. Description: Antifungal activity against Penicillium ochrochloron assessed as fungal growth inhibition at 100 ug/ml by micro-dilution method relative to control. In kind it is functional. The settings on record: read-out: GI.
The subject of data set [16] is Fusarium solani. Description: Antifungal activity against Fusarium solani assessed as fungal growth inhibition at 100 ug/ml by micro-dilution method relative to control. It is filed as functional. The settings on record: read-out: GI.
In data set [17] the test system is Aspergillus oryzae. In words: Antifungal activity against Aspergillus oryzae assessed as fungal growth inhibition by micro-dilution method. It is filed as functional.
Data set [18] concerns Alternaria alternata. In words: Antifungal activity against Alternaria alternata assessed as fungal growth inhibition by micro-dilution method. In kind it is functional.
Data set [19] concerns Sclerotinia sclerotiorum. Description: Antifungal activity against Sclerotinia sclerotiorum assessed as fungal growth inhibition by micro-dilution method. It is filed as functional.
The test system of data set [20] is Candida tropicalis. In words: Antifungal activity against Candida tropicalis assessed as fungal growth inhibition by micro-dilution method. In kind it is functional.
The subject of data set [21] is Penicillium ochrochloron. In words: Antifungal activity against Penicillium ochrochloron assessed as fungal growth inhibition by micro-dilution method. In kind it is functional.
Data set [22] deals with Kluyveromyces marxianus. In words: Antifungal activity against Candida pseudotropicalis assessed as fungal growth inhibition by micro-dilution method. It is filed as functional.
Data set [23] has as its system Paecilomyces variotii. Description: Antifungal activity against Paecilomyces variotii assessed as fungal growth inhibition by micro-dilution method. It is filed as functional.

`O=C1CC[C@@H](C(=O)N/N=C/c2ccc(CO)o2)N1`: the MIC50 in [1] and in data set [9] was > 75 µg/mL each time. The inhibition of growth at 100 µg/mL was 0% in data set [2]; 66% in [3]; 42% in data set [4]; 38% in [5]; 0% in [7]; 0% in [8]. Further, the inhibition of growth at 100 µg/mL in data set [11] stood at 0%; in data set [12], 45%; in data set [13], 88%; in [14] it was 28%; in data set [15] it was 28%; in [16], 72%. The inhibition of growth at 50 µg/mL in data set [6] is < 10%. Besides, in data set [10], the Activity result is “Non-Toxic”.

As for `O=C1CC[C@@H](C(=O)N/N=C/c2ccccc2)N1`, the inhibition of growth at 100 µg/mL is 0% in data set [2]; 40% in data set [3]; 20% in data set [4]; 15% in [5]; 0% in data set [7]; 0% in [8]. The inhibition of growth at 100 µg/mL in [11] is 12%; in [12], 46%; in [13], 83%; in data set [14], 7%; in [15], 25%; in data set [16], 59%. Besides, in [6], the inhibition of growth at 50 µg/mL was < 10%. For the same compound, the MIC50 in [9] is > 75 µg/mL. Besides, in [10], the Activity entry is reported as “Non-Toxic”.

In the case of `O=C1CCC(NNc2ccccc2)N1` (racemic), the MIC50 in [17] was 43.4 µg/mL; in data set [1] it was 18.5 µg/mL; in [18], 3.6 µg/mL; in [19], 23 µg/mL; in [20] it was 58.5 µg/mL; in data set [21] it was 4.4 µg/mL. For the same compound, the MIC50 in data set [22] worked out at 0.6 µg/mL; in data set [23] it was 7.8 µg/mL. Further, the inhibition of growth at 100 µg/mL in [2] was 76%; in [3], 35%; in [4], 82%; in [5], 89%; in data set [7] it was 71%; in data set [8], 62%. In addition, the inhibition of growth at 100 µg/mL in [11] was determined as 44%; in [12], 78%; in [13] it was 0%; in data set [14], 96%; in data set [15], 90%; in data set [16], 100%. In addition, the Activity entry in [10] is “Non-Toxic”.
